Some test systems named below: SN12C renal; HS 578T breast; NCI-H226 lung; K-562 leukemia; SK-MEL-28 melanoma; SNB-75 CNS; SF-539 CNS; MOLT-4 leukemia; UACC-257 melanoma; HOP-92 NSCLC.
Holding throughout (experiment): NCI tumour cell line growth inhibition, 48 h

“And” between values parts separate entries of the source, which are not always exact repeats. Equal entries are not always repeated.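 Cells were grown in 96-well plates and exposed to each compound for 48 hours at five concentrations; endpoints were interpolated linearly between bracketing concentrations, or set to the highest concentration if not reached. GI50 is the concentration that inhibits growth by half. TGI: total growth inhibition.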 Where a SMILES comes first, the peptide text is derived from it. [ ]: non-standard residue; d: D form. Phe(F5) = N[CH](Cc1c(F)c(F)c(F)c(F)c1F)C(=O)O

As for `CC[C@](C)(O)C(=O)O[C@H]1C(=O)O[C@@H]2C[C@H]3C(C)=CC(=O)[C@@H](O)[C@]3(C)[C@H]3[C@@]4(O)OC[C@]32[C@@H]1[C@@H](C)[C@H]4O`, the GI50 in the experiment with SN12C renal is 0.317 µM; in the experiment with NCI-H226 lung it was 0.203 µM; with K-562 leukemia it was 0.0841 µM; in the experiment with SK-MEL-28 melanoma it was 0.0609 µM; in the experiment with SNB-75 CNS it was 0.258 µM; in the experiment on SF-539 CNS, 0.0141 µM. The GI50 with MOLT-4 leukemia is 0.0366 µM; with UACC-257 melanoma, 0.142 µM. The TGI in the experiment on SN12C renal was 2.03 µM and 5.18 µM; with HS 578T breast, 4.44 µM; in the experiment with NCI-H226 lung, 0.664 µM and 0.435 µM; in the experiment on SK-MEL-28 melanoma, 0.264 µM and 0.16 µM; with SNB-75 CNS, 1.02 µM and 0.17 µM; in the experiment on SF-539 CNS, 0.0353 µM and 0.0895 µM. Moreover, in the experiment on UACC-257 melanoma, the TGI is 0.841 µM and 0.218 µM.

With `O=C1C(Cl)=C(N/N=c2/[nH][nH]/c(=N/NC3=C(Cl)C(=O)c4ccccc4C3=O)c3ccccc23)C(=O)c2ccccc21`, the GI50 in the experiment on SN12C renal was 15 µM; with HS 578T breast, 13.5 µM; in the experiment on NCI-H226 lung, 17.8 µM; in the experiment on K-562 leukemia, 3.23 µM; in the experiment on SK-MEL-28 melanoma it was 19.5 µM; in the experiment on SNB-75 CNS it was 1.49 µM. Besides, the GI50 in the experiment on SF-539 CNS was 15.6 µM; with MOLT-4 leukemia, 4.9 µM; in the experiment on UACC-257 melanoma it was 14.9 µM. The TGI in the experiment with SN12C renal amounted to 29.5 µM; in the experiment with HS 578T breast it was 66.3 µM; with NCI-H226 lung it was 44 µM; in the experiment on K-562 leukemia, 13.9 µM; in the experiment on SK-MEL-28 melanoma, 39 µM; with SNB-75 CNS it was 15.3 µM. For the same compound, the TGI was 31.7 µM in the experiment with SF-539 CNS, 34.6 µM with MOLT-4 leukemia and 28.7 µM with UACC-257 melanoma.

As for `CCN=C1C=CC(=C(c2ccc(N(C)C)cc2)c2ccc(N(C)C)cc2)c2ccccc21`, the GI50 was 0.0414 µM in the experiment with HOP-92 NSCLC; 0.035 µM in the experiment on SN12C renal; 0.149 µM in the experiment with HS 578T breast; 0.0557 µM in the experiment with K-562 leukemia; 0.15 µM in the experiment with SK-MEL-28 melanoma; 0.0833 µM in the experiment on SNB-75 CNS. Moreover, the figures for the GI50 in the experiment with SF-539 CNS, in the experiment on MOLT-4 leukemia and in the experiment on UACC-257 melanoma were 0.124 µM, 0.202 µM and 0.0234 µM, respectively. The TGI was 0.352 µM in the experiment on HOP-92 NSCLC; 1.37 µM in the experiment with SN12C renal; 1.02 µM in the experiment on HS 578T breast; 2.17 µM in the experiment with K-562 leukemia; 1.66 µM in the experiment with SK-MEL-28 melanoma; 0.332 µM with SNB-75 CNS. The TGI in the experiment with SF-539 CNS stood at 0.53 µM; in the experiment on MOLT-4 leukemia, 2.54 µM; in the experiment with UACC-257 melanoma, 0.0592 µM.

As for `COC(=O)C(CC(C)C)NC(=O)C(Cc1cnc[nH]1)NC(=O)CNC(=O)C(NC(=O)C(C)NC(=O)C(Cc1c[nH]c2ccccc12)NC(=O)C(CCC(=O)O)NC(=O)C(N)Cc1c(F)c(F)c(F)c(F)c1F)C(C)C` (configuration not stated) (H-[Phe(F5)]EWAVGHL-OMe; configuration not given here), the GI50 in the experiment with SN12C renal, in the experiment with K-562 leukemia, with SK-MEL-28 melanoma, in the experiment on SF-539 CNS, in the experiment with MOLT-4 leukemia and with UACC-257 melanoma was greater than 100 µM each time. Also, the TGI is greater than 100 µM in the experiment on SN12C renal; greater than 12.5 µM in the experiment on HS 578T breast; greater than 12.5 µM with NCI-H226 lung; greater than 100 µM in the experiment on K-562 leukemia; greater than 100 µM in the experiment on SK-MEL-28 melanoma; greater than 100 µM in the experiment on SNB-75 CNS. Besides, the TGI with SF-539 CNS, with MOLT-4 leukemia and in the experiment on UACC-257 melanoma was greater than 100 µM in each case.

As to `Cc1ccc(C(=O)Nc2ccc(S(=O)(=O)O)c3cc(S(=O)(=O)O)cc(S(=O)(=O)O)c23)cc1NC(=O)c1cccc(N)c1`, the TGI with SN12C renal, in the experiment on HS 578T breast, in the experiment on NCI-H226 lung, with K-562 leukemia, in the experiment on SK-MEL-28 melanoma and with SNB-75 CNS was greater than 100 µM each time. Also, the TGI with SF-539 CNS, in the experiment with MOLT-4 leukemia and with UACC-257 melanoma was greater than 100 µM each time.

As for `Nc1ncnc2sc(=S)c3c(c12)CCC3`, the GI50 in the experiment with SN12C renal is 32.8 µM; in the experiment with HS 578T breast, 34.5 µM; in the experiment on NCI-H226 lung, 28.7 µM; with K-562 leukemia, 36.1 µM; in the experiment with SK-MEL-28 melanoma it was greater than 100 µM; in the experiment with SNB-75 CNS, 88.7 µM. Also, the figures for the GI50 with SF-539 CNS, in the experiment with MOLT-4 leukemia and in the experiment with UACC-257 melanoma were 17 µM, 23.2 µM and greater than 100 µM, respectively. Also, the TGI with SN12C renal was greater than 100 µM; in the experiment on HS 578T breast, 99.7 µM; in the experiment on NCI-H226 lung it was greater than 100 µM; in the experiment with K-562 leukemia, greater than 100 µM; with SK-MEL-28 melanoma, greater than 100 µM; in the experiment on SNB-75 CNS, greater than 100 µM. In addition, the TGI with SF-539 CNS was 52.8 µM; with MOLT-4 leukemia it was 69.7 µM; in the experiment on UACC-257 melanoma it was greater than 100 µM.

`CC(C)(C(=O)NN)c1ccccc1`: the TGI in the experiment with HOP-92 NSCLC, in the experiment on SN12C renal, in the experiment with HS 578T breast, in the experiment with K-562 leukemia, with SK-MEL-28 melanoma and in the experiment with SNB-75 CNS was greater than 100 µM in each case. The TGI in the experiment with SF-539 CNS, in the experiment with MOLT-4 leukemia and in the experiment on UACC-257 melanoma was greater than 100 µM throughout.

(Values after PubChem BioAssay (NCI).)
